Results as given in patent US20250387354A1 (SpringWorks Therapeutics, Inc., priority 2024, published 2025).

Test system: NF1-associated plexiform neurofibromas (PNs)
Test: Phase 2b trial of mirdametinib: confirmed objective response by BICR volumetric MRI per REiNS criteria
Assay type: in vivo, human
Description: Study treatment was administered orally at a twice daily (BID) dose specified in the table below. Dosing was on a 28-day Cycle (4-week course) with a 3 week on/1 week off schedule. The treatment period will last for up to 24 Cycles followed by a 30-day Safety Follow-Up period.
A partial response was defined as PN decrease ≥20% compared to baseline using centrally read MRI volumetric analysis.
The major efficacy outcome measure was confirmed objective response rate (ORR), defined as the percentage of patients with complete response (disappearance of the target PN) or confirmed partial response ([…]). Responses were assessed by blinded independent central review (BICR) using volumetric magnetic resonance imaging (MRI) analysis per Response Evaluation in Neurofibromatosis and Schwannomatosis (REINS) criteria. A secondary efficacy objective was to determine the duration of response for patients who achieved a confirmed objective response.

SMILES: O=C(NOC[C@H](O)CO)c1ccc(F)c(F)c1Nc1ccc(I)cc1F (single isomer, unassigned) [mirdametinib]
- ORR also considering confirmed objective responses after cycle 24 (adults): 45%
- ORR also considering confirmed objective responses after cycle 24 (pediatric patients): 54%
